Measured values as given in PubChem BioAssay AID1918936 (Molecular Pharmacology Branch, DTP, NCI, 2023).

Test system: 349418-098-R-PDC complex spheroid viability
Assay: Anticancer human tumor 349418-098-R-PDC patient-derived lung adenocarcinoma cell line growth inhibition
Settings: for IC50: curve of first compound; for viability, T/C: stronger effect = lower value; active = viability on the fitted dose curve at most 10% of control; inactive = the rest
Text: Multicellular complex tumor spheroid response to LSD1 Inhibitor Iadademstat in combination with a variety of drugs and investigational agents in selected tumor cell lines
The current study was undertaken to assess response to LSD1 inhibitors in combination with standard-of-care drugs and investigational agents in solid tumor complex spheroid models as well as in the K-562 leukemia. Complex spheroids include a stromal component modeled by human endothelial cells (HUVEC) and fibroblasts modeled by human mesenchymal stem cells (MSCs). The concentration ranges selected for each drug and investigational agent were based upon clinically achievable concentrations if the clinical Cmax of the agent was known.
Compounds. The drugs and investigational agents used in this study are listed on Table 1. All of the agents used, including staurosporine (NSC755774) and gemcitabine (NSC613327), were obtained from the Developmental Therapeutics Program, NCI. FDA-approved anticancer drugs are available from the NCI at http://dtp.nci.nih.gov/branches/dscb/oncology_drugset_explanation.html. Drugs and investigational agents were >95% pure by proton nuclear magnetic resonance (NMR) and liquid chromatography/mass spectrometry (LC/MS). Stock solutions were prepared at 400x in DMSO, stored at -70 degrees C, and diluted in fresh medium prior to their use. The final concentration of DMSO in cell culture wells never exceeded 0.25% (v/v). The FDA-approved anticancer drug set is available from the Developmental Therapeutics Program at https://dtp.cancer.gov/organization/dscb/obtaining/available_plates.htm. All drugs and investigational agents were tested over a range starting from a high concentration at or near the clinical Cmax and decreasing in half-log increments. If the clinical Cmax for an agent had not been determined, the highest concentration tested was 10 microM.
Cell Lines. The patient-derived cancer cell (PDC) lines: 292921-168-R-J2-PDC, K24384-001-R-PDC, and 521955-158-R2-J5-PDC pancreatic carcinomas, 556581-035-R-J1 ovarian carcinoma, 324938-238-R-J1-PDC, 855422-203-R-J1-PDC and 883617-216-R-J1-PDC urothelial bladder carcinomas, 743489-274-T-PDC renal cell carcinoma, 138582-R-J1 Merkel cell tumor, K60290-347-R-J1 and K57222-313-R-J1-PDC glioblastomas, 653999-131-R-J2-PDC, LG0703-F948-PDC, and 349418-098-R-PDC non-small cell lung carcinomas, 885512-296-R-J2-PDC, 171881-019-R-J1-PDC breast carcinomas and 186277-243-T-J2-PDC and 233499-124-R-J2-PDC colon carcinomas were obtained from the NCI Patient-Derived Models Repository (PDMR, https://pdmr.cancer.gov). The established cell lines NCI/ADR-RES (RRID:CVCL_14520 and OVCAR-5 (RRID:CVCL_1628) ovarian carcinomas, 786-O (RRID:CVCL_1051) and A498 (RRID:CVCL_A498) renal cell carcinoma, NCI-H211 (ATCC, cat. CRL-5824; RRID:CVCL_1529), NCI-H196 (ATCC, cat. CRL-5823, RRID:CVCL_1509), SW 1271 (ATCC, cat. CRL-2177, RRID:CVCL_1716) and NCI-H1876 (ATCC, cat. CRL-5902, RRID:CVCL_1503) small cell lung carcinomas, MDA-MB-231 (RRID:CVCL_0062) and MDA-MB-468 (RRID:CVCL_0419)breast carcinomas (10-12). Pooled donor human umbilical vein endothelial cells (HUVEC, Lonza, cat. CC-2519) and human mesenchymal stem cells (hMSC, Lonza, cat. PT-2501) were purchased from Lonza (Walkersville, MD).
Cell Culture. All cells were maintained in an incubator at 37 degrees C and 5% CO2 with 95% humidity. The PDC lines were cultured according to standard operating procedures established by the NCI PDMR (https://pdmr.cancer.gov). Briefly all PDCs were thawed and cultured in Matrigel-coated flasks prepared with a working solution of 1X Ham's F-12 nutrient mix, without supplementation (Invitrogen, Waltham, MA, cat. 11765054), 100 U/mL penicillin-streptomycin (Invitrogen, cat. 15140122), and 2.5% Matrigel (Corning Inc., Corning, NY, cat. 354248) for the first three passages. […]

[1] = second compound 0.1 µM, first compound 0.000949 µM
[2] = second compound 0.1 µM, first compound 0.003 µM
[3] = second compound 0.1 µM, first compound 0.00949 µM
[4] = second compound 0.1 µM, first compound 0.03 µM
[5] = second compound 0.1 µM, first compound 0.0949 µM
[6] = second compound 0.1 µM, first compound 0.3 µM
[7] = second compound 0.316 µM, first compound 0.000949 µM
[8] = second compound 0.316 µM, first compound 0.003 µM
[9] = second compound 0.316 µM, first compound 0.00949 µM
[10] = second compound 0.316 µM, first compound 0.03 µM
[11] = second compound 0.316 µM, first compound 0.0949 µM
[12] = second compound 0.316 µM, first compound 0.3 µM
[13] = second compound 1 µM, first compound 0.000949 µM
[14] = second compound 1 µM, first compound 0.003 µM
[15] = second compound 1 µM, first compound 0.00949 µM
[16] = second compound 1 µM, first compound 0.03 µM
[17] = second compound 1 µM, first compound 0.0949 µM
[18] = second compound 1 µM, first compound 0.3 µM
[19] = second compound 3.16 µM, first compound 0.000949 µM
[20] = second compound 3.16 µM, first compound 0.003 µM
[21] = second compound 3.16 µM, first compound 0.00949 µM
[22] = second compound 3.16 µM, first compound 0.03 µM
[23] = second compound 3.16 µM, first compound 0.0949 µM
[24] = second compound 3.16 µM, first compound 0.3 µM
[25] = second compound 10 µM, first compound 0.000949 µM
[26] = second compound 10 µM, first compound 0.003 µM
[27] = second compound 10 µM, first compound 0.00949 µM
[28] = second compound 10 µM, first compound 0.03 µM
[29] = second compound 10 µM, first compound 0.0949 µM
[30] = second compound 10 µM, first compound 0.3 µM
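Note: spheroids exposed to agents for seven days before readout.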

CCc1c2c(nc3ccc(O)cc13)-c1cc3c(c(=O)n1C2)COC(=O)[C@]3(O)CC + NC1CC1c1ccc(-c2cccc(O)c2)cc1
active: viability, T/C [1] 3.35% | viability, T/C [2] 2.46% | viability, T/C [3] 1.32% | viability, T/C [4] 1.41% | viability, T/C [5] 1.92% | viability, T/C [6] 1.96% | viability, T/C [7] 3.19% | viability, T/C [8] 2.09% | viability, T/C [9] 1.26% | viability, T/C [10] 1.31% | viability, T/C [11] 1.59% | viability, T/C [12] 1.98% | viability, T/C [13] 3.23% | viability, T/C [14] 2.09% | viability, T/C [15] 1.23% | viability, T/C [16] 1.48% | viability, T/C [17] 1.67% | viability, T/C [18] 1.92% | viability, T/C [19] 3.45% | viability, T/C [20] 2.17% | viability, T/C [21] 1.37% | viability, T/C [22] 1.52% | viability, T/C [23] 1.8% | viability, T/C [24] 1.56% | viability, T/C [25] 3.42% | viability, T/C [26] 1.99% | viability, T/C [27] 1.52% | viability, T/C [28] 1.31% | viability, T/C [29] 1.59% | viability, T/C [30] 1.47%
< 0.949 nM: IC50 (second compound 0.1 µM) | IC50 (second compound 0.316 µM) | IC50 (second compound 1 µM) | IC50 (second compound 3.16 µM) | IC50 (second compound 10 µM)

Nc1ccn(C2OC(CO)C(O)C2(F)F)c(=O)n1 (stereo not given) + NC1CC1c1ccc(-c2cccc(O)c2)cc1
active: viability, T/C [2] 4.68% | viability, T/C [3] 4.34% | viability, T/C [4] 4.35% | viability, T/C [5] 3.93% | viability, T/C [6] 4.06% | viability, T/C [8] 3.77% | viability, T/C [9] 3.96% | viability, T/C [10] 3.75% | viability, T/C [11] 3.4% | viability, T/C [12] 3.31% | viability, T/C [14] 4.07% | viability, T/C [15] 4.17% | viability, T/C [16] 3.99% | viability, T/C [17] 3.7% | viability, T/C [18] 3.81% | viability, T/C [20] 4.9% | viability, T/C [21] 4.67% | viability, T/C [22] 4.52% | viability, T/C [23] 3.81% | viability, T/C [24] 3.95% | viability, T/C [26] 4.98% | viability, T/C [27] 5.12% | viability, T/C [28] 4.52% | viability, T/C [29] 4.65% | viability, T/C [30] 4.28%
< 0.949 nM: IC50 (second compound 0.1 µM) | IC50 (second compound 0.316 µM) | IC50 (second compound 1 µM) | IC50 (second compound 3.16 µM) | IC50 (second compound 10 µM)
inactive: viability, T/C [1] 13.3% | viability, T/C [7] 14.1% | viability, T/C [13] 15.9% | viability, T/C [19] 18.6% | viability, T/C [25] 17.2%
